Source: ChEMBL document CHEMBL4428041, “Identification and SAR Evaluation of Hemozoin-Inhibiting Benzamides Active against Plasmodium falciparum” (J Med Chem, 2016)
pIC50: −log10 of the molar value. In brackets after ≈: the same amount, converted by molar mass. Activity calls are given as the source filed them. The calls are words filed in the database; no cut-off is given here.

Columns and labels:
Plasmodium falciparum [1] = experiment: Antimalarial activity against CQ-sensitive Plasmodium falciparum NF54 infected in human type O+ erythrocytes assessed as growth inhibition incubated for 48 hrs by LDH assay; format: functional, organism-based; conditions: NF54, 48 h
Plasmodium falciparum [2] = experiment: Antimalarial activity against CQ-sensitive Plasmodium falciparum D10 infected in human type O+ erythrocytes assessed as growth inhibition incubated for 48 hrs by LDH assay; format: functional, organism-based; conditions: D10, 48 h
Hemozoin [3] = experiment: Inhibition of beta-hematin in water/NP40/DMSO solution incubated for 5 to 6hrs by detergent-mediated pyridine-ferrichrome method
CHO = experiment: Cytotoxicity against CHO cells by MTT assay; format: cell-based; conditions: Cricetulus griseus
[4] = Clearance in human liver microsomes assessed per mg of protein at 0.1 uM by LC-MS/MS analysis; format: ADME, Microsome; conditions: read-out: CLH
[5] = Half life in rat liver microsomes at 0.1 uM in presence of NADPH by LC-MS/MS analysis; format: ADME, Microsome
[6] = Kinetic solubility of compound FaSSIF at pH 6.5 after 2 hrs by shake flask assay; format: physicochemical; conditions: read-out: Kinetic_solubility
[7] = Kinetic solubility of compound at pH 2 after 2 hrs by shake flask assay; format: physicochemical; conditions: buffer, read-out: Kinetic_solubility
[8] = Clearance in mouse liver microsomes assessed per mg of protein at 0.1 uM by LC-MS/MS analysis; format: ADME, Microsome; conditions: read-out: CLH
[9] = Clearance in rat liver microsomes assessed per mg of protein at 0.1 uM by LC-MS/MS analysis; format: ADME, Microsome; conditions: read-out: CLH
[10] = Half life in human liver microsomes at 0.1 uM in presence of NADPH by LC-MS/MS analysis; format: ADME, Microsome
[11] = Half life in mouse liver microsomes at 0.1 uM in presence of NADPH by LC-MS/MS analysis; format: ADME, Microsome
[12] = Kinetic solubility of compound in at pH 6.5 after 2 hrs by shake flask assay; format: physicochemical; conditions: buffer, read-out: Kinetic_solubility
Hemozoin [13] = experiment: Inhibition of beta-hematin incubated for 6 hrs by NP40 detergent-mediated assay
Plasmodium falciparum [14] = experiment: Antimalarial activity against Plasmodium falciparum D6 infected in red blood cells assessed as growth inhibition by SYBR green1 fluorescence-based assay; format: functional, organism-based
Ferriprotoporphyrin IX [15] = system: Ferriprotoporphyrin IX
Description: Binding affinity to Fe(3)PP9 in hematin solution at pH 7.5 by titration-based UV-vis spectrophotometrical analysis

Plasmodium falciparum [16] = experiment: Antimalarial activity against CQ-sensitive Plasmodium falciparum NF54 infected in human type O+ erythrocytes assessed as growth inhibition up to 249 uM incubated for 48 hrs by LDH assay; format: functional, organism-based
Plasmodium falciparum [17] = experiment: Antimalarial activity against CQ-sensitive Plasmodium falciparum D10 infected in human type O+ erythrocytes assessed as growth inhibition up to 249 uM incubated for 48 hrs by LDH assay; format: functional, organism-based
Ferriprotoporphyrin IX [18] = experiment: Binding affinity to Fe(3)PP9 solution assessed as ferriprotoporphyrin 9 complex formation by measuring compound concentration causing pink precipitate formation at <=5500 uM
Ferriprotoporphyrin IX [19] = experiment: Binding affinity to Fe(3)PP9 solution assessed as ferriprotoporphyrin 9 complex formation by measuring pink precipitate formation at <=5500 uM
Hemozoin [20] = experiment: Inhibition of hemozoin formation in CQ-sensitive Plasmodium falciparum D10 infected in human type O+ erythrocytes assessed as increase in free heme at 0.5 to 4 times beta-hematin IC50 incubated for 32 hrs by cell fractionation assay; format: cell-based; conditions: Erythrocyte
Hemozoin [21] = experiment: Inhibition of hemozoin formation in CQ-sensitive Plasmodium falciparum D10 infected in human type O+ erythrocytes assessed as decrease in hemozoin formation at 0.5 to 4 times beta-hematin IC50 incubated for 32 hrs by cell fractionation assay; format: cell-based; conditions: Erythrocyte
Hemozoin [22] = experiment: Inhibition of hemozoin formation in CQ-sensitive Plasmodium falciparum D10 infected in human type O+ erythrocytes assessed as increase in free heme incubated for 32 hrs by cell fractionation assay; format: cell-based; conditions: Erythrocyte
Hemozoin [23] = experiment: Inhibition of hemozoin formation in CQ-sensitive Plasmodium falciparum D10 infected in human type O+ erythrocytes assessed as decrease in hemozoin formation incubated for 32 hrs by cell fractionation assay; format: cell-based; conditions: Erythrocyte

SMILES	pIC50 (Plasmodium falciparum [1])	pIC50 (Plasmodium falciparum [2])	pIC50 (Hemozoin [3])	other results
N#Cc1cc(C(=O)Nc2ccncc2)cc(C(=O)Nc2ccncc2)c1	5.72	5.70	5.20	–
O=C(Nc1ccncc1)c1cc(C(=O)Nc2ccncc2)cc([N+](=O)[O-])c1	6.15	6.05	5.37	pIC50 (CHO): < 3.56; microsomal CLint at 0.1 µM [4]: < 11.6 µL/min/mg; half-life at 0.1 µM [5]: > 2.5 h; solubility kinetic at 2 h [6]: 13 µM (≈ 4.72 µg/mL); solubility kinetic at 2 h [7]: 200 µM (≈ 72.6 µg/mL); microsomal CLint at 0.1 µM [8]: < 11.6 µL/min/mg; microsomal CLint at 0.1 µM [9]: < 11.6 µL/min/mg; half-life at 0.1 µM [10]: > 2.5 h; half-life at 0.1 µM [11]: > 2.5 h; solubility kinetic at 2 h [12]: < 5 µM; pIC50 (Hemozoin [13]): 5.23; pIC50 (Plasmodium falciparum [14]): 6.72
Cc1cc(C(=O)Nc2ccncc2)cc(C(=O)Nc2ccncc2)c1	5.60	–	5.10	log K (Ferriprotoporphyrin IX [15]): 3.92
O=C(Nc1cccnc1)c1cc(C(=O)Nc2cccnc2)cc([N+](=O)[O-])c1	5.88	–	5.33	–
O=C(Nc1ccccc1)c1cc(C(=O)Nc2ccccc2)cc(C(=O)Nc2ccccc2)c1	4.09	< 4.38	4.68	–
O=C(Nc1ccccc1)c1cc(C(=O)Nc2nc3ccccc3[nH]2)cc([N+](=O)[O-])c1	–	–	4.17	Activity (Plasmodium falciparum [16]): inactive; Activity (Plasmodium falciparum [17]): inactive
O=C(Nc1ccncc1)c1ccc([N+](=O)[O-])cc1[N+](=O)[O-]	–	–	< 2.26	Activity (Ferriprotoporphyrin IX [18]): inactive; Activity (Ferriprotoporphyrin IX [19]): inactive
O=C(Nc1ccccc1)c1cc([N+](=O)[O-])cc([N+](=O)[O-])c1	5.30	–	4.66	–
O=C(Nc1ccncc1)c1cccc(C(=O)Nc2ccncc2)c1	5.05	–	3.29	–
CC(C)(C)c1cc(C(=O)Nc2ccccc2)cc(C(=O)Nc2ccccc2)c1	5.09	–	< 3.00	inhibition (Hemozoin [20]): inactive; inhibition (Hemozoin [21]): inactive
O=C(Nc1ccccn1)c1cc([N+](=O)[O-])cc([N+](=O)[O-])c1	4.66	4.62	3.87	–
O=C(Nc1ccncc1)c1ccccc1	–	–	< 2.26	Activity (Ferriprotoporphyrin IX [18]): inactive; Activity (Ferriprotoporphyrin IX [19]): inactive
O=C(Nc1ccncc1)c1cccc(Cl)c1	–	–	–	Activity (Ferriprotoporphyrin IX [18]): 1300 to 2300 µM
O=C(Nc1ccncc1)c1cc([N+](=O)[O-])cc([N+](=O)[O-])c1	5.64	5.62	4.96	pIC50 (Hemozoin [13]): 5.04; pIC50 (Plasmodium falciparum [14]): 5.32
O=C(Nc1ccccc1)c1cccc(C(=O)Nc2ccccc2)n1	< 3.50	–	< 3.00	–
O=C(Nc1ccccc1)c1ccccc1[N+](=O)[O-]	< 4.38	–	< 3.00	–
O=C(Nc1ccccc1)c1cc(C(=O)Nc2ccccc2)cc([N+](=O)[O-])c1	5.85	–	5.15	–
O=C(Nc1ccncc1)c1cccc(C(=O)Nc2ccncc2)n1	< 3.50	–	3.59	–
O=C(Nc1cccnc1)c1cc([N+](=O)[O-])cc([N+](=O)[O-])c1	5.30	5.64	4.89	inhibition (Hemozoin [22]): Dose-dependent effect; inhibition (Hemozoin [23]): Dose-dependent effect
